Measurements from BindingDB's records for doi:10.1021/jm040794i (2005).

Key:
[1] = molecular target: Somatostatin receptor type 5 (Homo sapiens, UniProt P35346); assay: In vitro inhibition of [125I][Leu8,D-Trp22,Tyr25] somatostatin 28 binding to human somatostatin receptor type 5 expressed in CHO-K1 cells; (n=3)
[2] = molecular target: Somatostatin receptor type 1 (Homo sapiens, UniProt P30872); assay: In vitro inhibition of [125I][Leu8,D-Trp22,Tyr25] somatostatin 28 binding to human somatostatin receptor type 1 expressed in CHO-K1 cells; (n=3)
Sequence of Somatostatin receptor type 1 (P30872 whole entry): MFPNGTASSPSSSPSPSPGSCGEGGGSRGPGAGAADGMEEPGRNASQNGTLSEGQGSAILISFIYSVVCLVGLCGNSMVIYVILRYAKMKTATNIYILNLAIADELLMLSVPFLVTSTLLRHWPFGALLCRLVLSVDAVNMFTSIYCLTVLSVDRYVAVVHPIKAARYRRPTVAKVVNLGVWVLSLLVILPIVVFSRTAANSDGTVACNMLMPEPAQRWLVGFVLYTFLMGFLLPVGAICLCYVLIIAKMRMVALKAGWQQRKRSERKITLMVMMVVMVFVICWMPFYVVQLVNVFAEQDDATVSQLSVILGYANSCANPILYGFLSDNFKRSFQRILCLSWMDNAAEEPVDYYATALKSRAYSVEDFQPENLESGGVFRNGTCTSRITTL

Sequence of Somatostatin receptor type 5 (P35346 whole entry): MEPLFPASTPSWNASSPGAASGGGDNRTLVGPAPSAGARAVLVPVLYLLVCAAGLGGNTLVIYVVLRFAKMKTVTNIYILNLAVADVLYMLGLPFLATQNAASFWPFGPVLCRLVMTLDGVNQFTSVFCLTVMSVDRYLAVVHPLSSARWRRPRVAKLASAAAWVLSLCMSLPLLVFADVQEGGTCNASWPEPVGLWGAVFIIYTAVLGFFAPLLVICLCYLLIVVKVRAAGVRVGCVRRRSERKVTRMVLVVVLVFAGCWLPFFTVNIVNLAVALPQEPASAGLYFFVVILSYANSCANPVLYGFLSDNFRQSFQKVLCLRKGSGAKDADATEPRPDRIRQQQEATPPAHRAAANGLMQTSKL

Structure (SMILES) | IC50 [1] [nM] | IC50 [2] [nM]
C[C@@H](O)[C@H](NC(=O)[C@@H]1CSSC[C@H](NC(=O)[C@@H](Cc2ccccc2)NC(=O)CN2CCN(CC(=O)O)CCN(CC(=O)O)CCN(CC(=O)O)CC2)C(=O)N[C@@H](Cc2ccc(O)cc2)C(=O)N[C@H](Cc2c[nH]c3ccccc23)C(=O)N[C@@H](CCCCN)C(=O)N[C@@H]([C@@H](C)O)C(=O)N1)C(=O)O | 377 | –
C[C@@H](O)[C@H](NC(=O)[C@@H]1CSSC[C@H](NC(=O)[C@H](N)Cc2ccccc2)C(=O)N[C@@H](Cc2ccc(O)c(I)c2)C(=O)N[C@H](Cc2c[nH]c3ccccc23)C(=O)N[C@@H](CCCCN)C(=O)N[C@@H]([C@@H](C)O)C(=O)N1)C(=O)O [4-[(4R,7S,10S,13R,16S)-19-(2-azaniumyl-3-phenylpropanamido)-4-{[(1S)-1-carboxy-2-hydroxypropyl]carbamoyl}-16-[(4-hydroxy-3-iodophenyl)methyl]-7-(1-hydroxyethyl)-13-(1H-indol-3-ylmethyl)-6,9,12,15,18-pentaoxo-1,2-dithia-5,8,11,14,17-pentaazacycloicosan-10-yl]butan-1-aminium] | – | > 10000
